Key:
[1] = system: Salmonella typhimurium TA98; test: Ames test (reverse mutation test), pre-incubation method, strain TA98
Procedure: (§1) Ames Test (Reverse Mutation Test)
(§2) Metabolites 1 to 3 and Metabolites A to E were each tested herein. The purpose of this test is to evaluate the potential of each metabolite to induce reverse mutations in the standard strains of Salmonella typhimurium (TA98, TA1537, TA100, and TA1535) and Escherichia coli (WP2uvrA), in either the presence or absence of a rat liver metabolic activation system (S9 mix).
(§3) The solvent used herein was dimethyl sulfoxide (DMSO, 100 μL/plate).
(§4) The test was performed by the pre-incubation method with or without S9 mix. When the test was performed without S9 mix, sodium phosphate buffer solution (pH 7.4) was added.
(§5) 0.5 mL of S9 mix or 0.5 mL of 0.1 mol/L sodium phosphate buffer solution (pH 7.4), and 0.1 mL of the bacterial culture solution were added to a test tube containing 0.1 mL of the negative control formulation (DMSO alone), the metabolite, or the positive control formulation. The mixtures were pre-incubated at 37° C. for 20 minutes while shaking. After the pre-incubation period, 2 mL of top agar were added and the mixtures were vortex-mixed and seeded onto plates. Two plates per treatment were used. Each plate was incubated at 37±1° C. for 48 hours or more and the revertant colonies were counted. The mean number of revertant colonies for each treatment plate was then calculated. The presence or absence of growth inhibition due to any antibacterial effect of the test article and precipitation of the test article was observed grossly or under a stereomicroscope. […] Evaluation was based on mean values with no statistical comparisons being used.

[2] = system: Salmonella typhimurium TA1537; test: Ames test (reverse mutation test), pre-incubation method, strain TA1537; type: cell-based
Procedure: as §1, §2, §3, §4, §5

[3] = system: Salmonella typhimurium TA100; test: Ames test (reverse mutation test), pre-incubation method, strain TA100; type: cell-based
Procedure: as §1, §2, §3, §4, §5

[4] = system: Salmonella typhimurium TA1535; test: Ames test (reverse mutation test), pre-incubation method, strain TA1535; type: cell-based
Procedure: as §1, §2, §3, §4, §5

Escherichia coli WP2uvrA = test: Ames test (reverse mutation test), pre-incubation method, strain WP2uvrA; type: cell-based
Description: as §1
Two plates per treatment were used.

CC(C)(Oc1cc(F)cc(-c2cc(N)nn2-c2cnc(C(F)(F)F)nc2)c1)C(F)(F)F [Metabolite 1]
Number of revertant colonies TA98 ([1]; S9 mix +, dose 185 μg/plate): 40
Number of revertant colonies TA98 ([1]; S9 mix −, dose 21 μg/plate): 32
Number of revertant colonies TA1537 ([2]; S9 mix +, dose 6.9 μg/plate): 13
Number of revertant colonies TA1537 ([2]; S9 mix +, dose 21 μg/plate): 12
Number of revertant colonies TA1537 ([2]; S9 mix +, dose 62 μg/plate): 13
Number of revertant colonies TA1537 ([2]; S9 mix +, dose 185 μg/plate): 13
Number of revertant colonies TA1537 ([2]; S9 mix +, dose 556 μg/plate): 10
Number of revertant colonies TA1537 ([2]; S9 mix +, dose 1667 μg/plate): 9
Number of revertant colonies TA1537 ([2]; S9 mix +, dose 5000 μg/plate): 4
Number of revertant colonies TA1537 ([2]; S9 mix −, dose 6.9 μg/plate): 8
Number of revertant colonies TA1537 ([2]; S9 mix −, dose 21 μg/plate): 8
Number of revertant colonies TA1537 ([2]; S9 mix −, dose 62 μg/plate): 8
Number of revertant colonies TA1537 ([2]; S9 mix −, dose 185 μg/plate): 9
Number of revertant colonies TA1537 ([2]; S9 mix −, dose 556 μg/plate): 9
Number of revertant colonies TA1537 ([2]; S9 mix −, dose 1667 μg/plate): 5
Number of revertant colonies TA1537 ([2]; S9 mix −, dose 5000 μg/plate): 3
Number of revertant colonies TA100 ([3]; S9 mix +, dose 6.9 μg/plate): 132
Number of revertant colonies TA100 ([3]; S9 mix +, dose 21 μg/plate): 132
Number of revertant colonies TA100 ([3]; S9 mix +, dose 62 μg/plate): 113
Number of revertant colonies TA100 ([3]; S9 mix +, dose 185 μg/plate): 108
Number of revertant colonies TA100 ([3]; S9 mix +, dose 556 μg/plate): 128
Number of revertant colonies TA100 ([3]; S9 mix +, dose 1667 μg/plate): 131
Number of revertant colonies TA100 ([3]; S9 mix +, dose 5000 μg/plate): 121
Number of revertant colonies TA100 ([3]; S9 mix −, dose 6.9 μg/plate): 89
Number of revertant colonies TA100 ([3]; S9 mix −, dose 21 μg/plate): 87
Number of revertant colonies TA100 ([3]; S9 mix −, dose 62 μg/plate): 87
Number of revertant colonies TA100 ([3]; S9 mix −, dose 185 μg/plate): 89
Number of revertant colonies TA100 ([3]; S9 mix −, dose 556 μg/plate): 80
Number of revertant colonies TA100 ([3]; S9 mix −, dose 1667 μg/plate): 69
Number of revertant colonies TA100 ([3]; S9 mix −, dose 5000 μg/plate): 47
Number of revertant colonies TA1535 ([4]; S9 mix +, dose 6.9 μg/plate): 10
Number of revertant colonies TA1535 ([4]; S9 mix +, dose 21 μg/plate): 8
Number of revertant colonies TA1535 ([4]; S9 mix +, dose 62 μg/plate): 9
Number of revertant colonies TA1535 ([4]; S9 mix +, dose 185 μg/plate): 10
Number of revertant colonies TA1535 ([4]; S9 mix +, dose 556 μg/plate): 9
Number of revertant colonies TA1535 ([4]; S9 mix +, dose 1667 μg/plate): 10
Number of revertant colonies TA1535 ([4]; S9 mix +, dose 5000 μg/plate): 7
Number of revertant colonies TA1535 ([4]; S9 mix −, dose 6.9 μg/plate): 11
Number of revertant colonies TA1535 ([4]; S9 mix −, dose 21 μg/plate): 10
Number of revertant colonies TA1535 ([4]; S9 mix −, dose 62 μg/plate): 9
Number of revertant colonies TA1535 ([4]; S9 mix −, dose 185 μg/plate): 7
Number of revertant colonies TA1535 ([4]; S9 mix −, dose 556 μg/plate): 9
Number of revertant colonies TA1535 ([4]; S9 mix −, dose 1667 μg/plate): 5
Number of revertant colonies TA1535 ([4]; S9 mix −, dose 5000 μg/plate): 7
Number of revertant colonies WP2uvrA (Escherichia coli WP2uvrA; S9 mix +, dose 6.9 μg/plate): 18
Number of revertant colonies WP2uvrA (Escherichia coli WP2uvrA; S9 mix +, dose 21 μg/plate): 20
Number of revertant colonies WP2uvrA (Escherichia coli WP2uvrA; S9 mix +, dose 62 μg/plate): 18
Number of revertant colonies WP2uvrA (Escherichia coli WP2uvrA; S9 mix +, dose 185 μg/plate): 16
Number of revertant colonies WP2uvrA (Escherichia coli WP2uvrA; S9 mix +, dose 556 μg/plate): 18
Number of revertant colonies WP2uvrA (Escherichia coli WP2uvrA; S9 mix +, dose 1667 μg/plate): 14
Number of revertant colonies WP2uvrA (Escherichia coli WP2uvrA; S9 mix +, dose 5000 μg/plate): 11
Number of revertant colonies WP2uvrA (Escherichia coli WP2uvrA; S9 mix −, dose 6.9 μg/plate): 17
Number of revertant colonies WP2uvrA (Escherichia coli WP2uvrA; S9 mix −, dose 21 μg/plate): 19
Number of revertant colonies WP2uvrA (Escherichia coli WP2uvrA; S9 mix −, dose 62 μg/plate): 16
Number of revertant colonies WP2uvrA (Escherichia coli WP2uvrA; S9 mix −, dose 185 μg/plate): 17
Number of revertant colonies WP2uvrA (Escherichia coli WP2uvrA; S9 mix −, dose 556 μg/plate): 18
Number of revertant colonies WP2uvrA (Escherichia coli WP2uvrA; S9 mix −, dose 1667 μg/plate): 15
Number of revertant colonies WP2uvrA (Escherichia coli WP2uvrA; S9 mix −, dose 5000 μg/plate): 9

Nc1cc(-c2cc(F)cc(OC(F)(F)F)c2)n(-c2cncc(F)c2)n1 [Metabolite 2]
Number of revertant colonies TA98 ([1]; S9 mix +, dose 62 μg/plate): 35
Number of revertant colonies TA98 ([1]; S9 mix −, dose 21 μg/plate): 30
Number of revertant colonies TA98 ([1]; S9 mix −, dose 185 μg/plate): 28
Number of revertant colonies TA1537 ([2]; S9 mix +, dose 6.9 μg/plate): 12
Number of revertant colonies TA1537 ([2]; S9 mix +, dose 21 μg/plate): 13
Number of revertant colonies TA1537 ([2]; S9 mix +, dose 62 μg/plate): 12
Number of revertant colonies TA1537 ([2]; S9 mix +, dose 185 μg/plate): 12
Number of revertant colonies TA1537 ([2]; S9 mix +, dose 556 μg/plate): 8
Number of revertant colonies TA1537 ([2]; S9 mix +, dose 1667 μg/plate): 0
Number of revertant colonies TA1537 ([2]; S9 mix +, dose 5000 μg/plate): 1
Number of revertant colonies TA1537 ([2]; S9 mix −, dose 6.9 μg/plate): 9
Number of revertant colonies TA1537 ([2]; S9 mix −, dose 21 μg/plate): 8
Number of revertant colonies TA1537 ([2]; S9 mix −, dose 62 μg/plate): 8
Number of revertant colonies TA1537 ([2]; S9 mix −, dose 185 μg/plate): 8
Number of revertant colonies TA1537 ([2]; S9 mix −, dose 556 μg/plate): 3
Number of revertant colonies TA1537 ([2]; S9 mix −, dose 1667 μg/plate): 3
Number of revertant colonies TA1537 ([2]; S9 mix −, dose 5000 μg/plate): 2
Number of revertant colonies TA100 ([3]; S9 mix +, dose 6.9 μg/plate): 109
Number of revertant colonies TA100 ([3]; S9 mix +, dose 21 μg/plate): 119
Number of revertant colonies TA100 ([3]; S9 mix +, dose 62 μg/plate): 118
Number of revertant colonies TA100 ([3]; S9 mix +, dose 185 μg/plate): 125
Number of revertant colonies TA100 ([3]; S9 mix +, dose 556 μg/plate): 115
Number of revertant colonies TA100 ([3]; S9 mix +, dose 1667 μg/plate): 97
Number of revertant colonies TA100 ([3]; S9 mix +, dose 5000 μg/plate): 92
Number of revertant colonies TA100 ([3]; S9 mix −, dose 6.9 μg/plate): 89
Number of revertant colonies TA100 ([3]; S9 mix −, dose 21 μg/plate): 90
Number of revertant colonies TA100 ([3]; S9 mix −, dose 62 μg/plate): 87
Number of revertant colonies TA100 ([3]; S9 mix −, dose 185 μg/plate): 86
Number of revertant colonies TA100 ([3]; S9 mix −, dose 556 μg/plate): 6
Number of revertant colonies TA100 ([3]; S9 mix −, dose 1667 μg/plate): 5
Number of revertant colonies TA100 ([3]; S9 mix −, dose 5000 μg/plate): 5
Number of revertant colonies WP2uvrA (Escherichia coli WP2uvrA; S9 mix +, dose 6.9 μg/plate): 19
Number of revertant colonies WP2uvrA (Escherichia coli WP2uvrA; S9 mix +, dose 21 μg/plate): 19
Number of revertant colonies WP2uvrA (Escherichia coli WP2uvrA; S9 mix +, dose 62 μg/plate): 19
Number of revertant colonies WP2uvrA (Escherichia coli WP2uvrA; S9 mix +, dose 185 μg/plate): 19
Number of revertant colonies WP2uvrA (Escherichia coli WP2uvrA; S9 mix +, dose 556 μg/plate): 17
Number of revertant colonies WP2uvrA (Escherichia coli WP2uvrA; S9 mix +, dose 1667 μg/plate): 14
Number of revertant colonies WP2uvrA (Escherichia coli WP2uvrA; S9 mix +, dose 5000 μg/plate): 9
Number of revertant colonies WP2uvrA (Escherichia coli WP2uvrA; S9 mix −, dose 6.9 μg/plate): 21
Number of revertant colonies WP2uvrA (Escherichia coli WP2uvrA; S9 mix −, dose 21 μg/plate): 16
Number of revertant colonies WP2uvrA (Escherichia coli WP2uvrA; S9 mix −, dose 62 μg/plate): 23
Number of revertant colonies WP2uvrA (Escherichia coli WP2uvrA; S9 mix −, dose 185 μg/plate): 20
Number of revertant colonies WP2uvrA (Escherichia coli WP2uvrA; S9 mix −, dose 556 μg/plate): 16
Number of revertant colonies WP2uvrA (Escherichia coli WP2uvrA; S9 mix −, dose 1667 μg/plate): 13
Number of revertant colonies WP2uvrA (Escherichia coli WP2uvrA; S9 mix −, dose 5000 μg/plate): 8

Source: patent publication US10988462B2, “Pyrazole compounds substituted with heteroaryl and pharmaceutical use thereof” (Japan Tobacco Inc., priority 2018, dated 2021)
